For orientation: pIC50 means the IC50 on a negative log10 scale, so that one unit is a factor of ten.

pIC50: −log10 of the molar value. Some results are limits rather than exact numbers.

The target of this experiment is T1, CDK9/CyclinT1 (Homo sapiens, UniProt P50750).
T1 construct: purchased ProQinase/Reaction Biology, USA #0371-0345-1
T1 sequence (P50750 whole entry): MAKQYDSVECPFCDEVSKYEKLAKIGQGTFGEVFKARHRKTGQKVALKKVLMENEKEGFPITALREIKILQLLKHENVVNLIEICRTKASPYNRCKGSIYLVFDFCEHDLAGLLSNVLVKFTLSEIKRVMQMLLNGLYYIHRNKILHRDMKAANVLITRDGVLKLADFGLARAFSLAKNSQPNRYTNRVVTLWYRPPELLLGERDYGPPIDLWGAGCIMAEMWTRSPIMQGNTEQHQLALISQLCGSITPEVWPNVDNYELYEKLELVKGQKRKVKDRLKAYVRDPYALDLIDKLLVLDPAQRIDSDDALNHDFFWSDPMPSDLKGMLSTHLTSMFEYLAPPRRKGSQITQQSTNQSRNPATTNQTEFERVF
T1 sequence (O60563 whole entry partner): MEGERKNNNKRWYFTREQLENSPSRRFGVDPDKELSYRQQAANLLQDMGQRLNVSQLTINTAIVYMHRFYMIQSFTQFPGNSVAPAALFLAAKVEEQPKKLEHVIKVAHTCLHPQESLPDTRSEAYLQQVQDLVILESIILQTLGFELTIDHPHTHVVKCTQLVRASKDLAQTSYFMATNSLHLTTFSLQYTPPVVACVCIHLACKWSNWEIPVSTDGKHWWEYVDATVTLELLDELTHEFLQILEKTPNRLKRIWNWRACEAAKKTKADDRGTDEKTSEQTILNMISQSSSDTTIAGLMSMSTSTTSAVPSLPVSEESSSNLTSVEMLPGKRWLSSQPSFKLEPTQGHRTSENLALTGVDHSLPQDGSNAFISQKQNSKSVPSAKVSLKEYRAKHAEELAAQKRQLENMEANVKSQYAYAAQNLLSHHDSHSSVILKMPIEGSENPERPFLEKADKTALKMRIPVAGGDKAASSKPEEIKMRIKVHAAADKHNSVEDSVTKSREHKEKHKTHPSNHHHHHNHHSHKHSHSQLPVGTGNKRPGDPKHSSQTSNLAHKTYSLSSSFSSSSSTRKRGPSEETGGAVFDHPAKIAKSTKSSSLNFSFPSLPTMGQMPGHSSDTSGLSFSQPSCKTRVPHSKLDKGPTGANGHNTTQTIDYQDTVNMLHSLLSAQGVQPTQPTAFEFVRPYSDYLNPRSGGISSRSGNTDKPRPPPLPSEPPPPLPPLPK
As to the kind of experiment: CDK9/T1 ADPGlo kinase assay. The format is biochemical. As to conditions: CDK9/CyclinT1 6 nM, ATP 10 microM, PDKtide 40 microM, 120 min RT. As to the method:
The testing compound was evaluated in 12 concentrations in a 1:3 dilution series, starting from 5microM as the highest concentration.
In a white 384 microplate (Greiner bio-one, Austria #784904,) with 2 microL of 3-fold concentrated CDK9/CyclinT1 (ProQinase/Reaction Biology, USA #0371-0345-1, LOT.: 012), final concentration (f.c.) 6 nM, in 1×kinase buffer, 2 microL of compound (3× fold concentrated in f.c. 1.66% DMSO/H2O) was added and incubated at Room Temperature (RT) for 10 min. Then 2 microL of Substrate/ATP-Mix (3×PDKtide f.c. 40 microM, SignalChem Biotech, Canada via Biozol, Eching, Germany #P10-58, LOT.: L2230-7 and 3×UltraPure ATP f.c. 10 microM (ADP Glo Kinase assay, Promega GmbH, Germany #V9102)) were added, mixed and incubated for 120 min at RT.
After incubation time, 5 microL of ADP Glo reagent (ready to use, ADP Glo Kinase assay, Promega GmbH, Germany #V9102) were added, mixed and incubated for 40 min at RT.
In the last step, 10 microL of ADP Glo Detection reagent (ready to use, ADP Glo Kinase assay, Promega GmbH, Germany #V9102) were added, mixed and incubated for 30 min at RT.
GloMax Discover GM3000 Reader (Promega GmbH, Germany 9700000249) was used for the readout.
The inhibitor concentration was plotted against the luminescence to determine the IC50 using XLFit 5.5 (IDBS, Guildford) to fit to a sigmoidal dose response curve with a variable slope.
A general note: ADP-Glo first removes unused ATP, then detects ADP through luciferase.
Consider `Fc1cccc(F)c1-c1nc(Nc2cnn(C3CCN(CC4CC4)CC3)c2)n2ncc(Cl)c2n1` [Example #100, 8-chloro-N-(1-(1-(cyclopropylmethyl)piperidin-4-yl)-1H-pyrazol-4-yl)-2-(2,6-difluorophenyl)pyrazolo[1,5-a][1,3,5]triazin-4-amine], for which the negative logarithm of the IC50 (pIC50) was more than 7.70. In turn, `Fc1cccc(Cl)c1-c1nc(Nc2cnn(C3CCN(C4CCOCC4)CC3)c2)n2ncc(Cl)c2n1` [Example #101, 8-chloro-2-(2-chloro-6-fluorophenyl)-N-(1-(1-(tetrahydro-2H-pyran-4-yl)piperidin-4-yl)-1H-pyrazol-4-yl)pyrazolo[1,5-a][1,3,5]triazin-4-amine] gave a negative-log IC50 (pIC50) of more than 7.70. The result for `Clc1cccc(Cl)c1-c1nc(Nc2cnn(C3CCN(C4CCOCC4)CC3)c2)n2ncc(Cl)c2n1` [Example #102, 8-chloro-2-(2,6-dichlorophenyl)-N-(1-(1-(tetrahydro-2H-pyran-4-yl)piperidin-4-yl)-1H-pyrazol-4-yl)pyrazolo[1,5-a][1,3,5]triazin-4-amine] reads more than 6.70.

In the case of `Fc1cccc(F)c1-c1nc(Nc2cnn(C3CCNCC3)c2)n2ncc(Cl)c2n1` [Example #103, 8-chloro-2-(2,6-difluorophenyl)-N-(1-(piperidin-4-yl)-1H-pyrazol-4-yl)pyrazolo[1,5-a][1,3,5]triazin-4-amine], the pIC50 was more than 7.70. The figure for `Cn1cc(Nc2nc(-c3c(F)cccc3F)nc3c(Cl)cnn23)cn1` [Example #104, 8-chloro-2-(2,6-difluorophenyl)-N-(1-methyl-1H-pyrazol-4-yl)pyrazolo[1,5-a][1,3,5]triazin-4-amine] is more than 7.70; for `CCN(CCO)CCCC(C)Nc1nc(-c2c(F)cccc2F)nc2c(Cl)cnn12` (centres unmarked) [Example #107, 2-((4-((8-chloro-2-(2,6-difluorophenyl)pyrazolo[1,5-a][1,3,5]triazin-4-yl)amino)pentyl)(ethyl)amino)ethan-1-ol] it is more than 7.70. The figure for `Fc1cccc(F)c1-c1nc(NC2CCC(N3CCOCC3)CC2)n2ncc(C(F)(F)F)c2n1` (centres unmarked) [Example #111, 2-(2,6-difluorophenyl)-N-((1r,4r)-4-morpholinocyclohexyl)-8-(trifluoromethyl)pyrazolo[1,5-a][1,3,5]triazin-4-amine] is more than 6.70; for `N[C@H]1CC[C@@H](Nc2nc(-c3c(F)cccc3F)nc3c(Cl)cnn23)CC1` [Example #112, (1s,4s)-N1-(8-chloro-2-(2,6-difluorophenyl)pyrazolo[1,5-a][1,3,5]triazin-4-yl)cyclohexane-1,4-diamine] it is more than 6.70; for `Fc1cccc(F)c1-c1nc(N[C@H]2CC[C@@H](N3CCCCC3)CC2)n2ncc(Cl)c2n1` [Example #113, 8-chloro-2-(2,6-difluorophenyl)-N-((1s,4s)-4-(piperidin-1-yl)cyclohexyl)pyrazolo[1,5-a][1,3,5]triazin-4-amine] it is more than 6.00. The result for `Cn1cc(Nc2nc(-c3c(F)cccc3F)nc3c(C(F)(F)F)cnn23)cn1` [Example #115, 2-(2,6-difluorophenyl)-N-(1-methyl-1H-pyrazol-4-yl)-8-(trifluoromethyl)pyrazolo[1,5-a][1,3,5]triazin-4-amine] reads more than 6.00; that for `N[C@@H]1CC[C@@H](Nc2nc(-c3c(F)cccc3F)nc3c(Cl)cnn23)C1` [Example #116, (1R,3R)-N1-(8-chloro-2-(2,6-difluorophenyl)pyrazolo[1,5-a][1,3,5]triazin-4-yl)cyclopentane-1,3-diamine], more than 7.70. `NC1CCC(Nc2nc(-c3c(F)cccc3F)nc3c(Cl)cnn23)C1` (centres unmarked) [Example #117, N1-(8-chloro-2-(2,6-difluorophenyl)pyrazolo[1,5-a][1,3,5]triazin-4-yl)cyclopentane-1,3-diamine] showed a pIC50 of more than 7.70.

For the compound `N[C@H]1CC[C@H](Nc2nc(-c3c(F)cccc3F)nc3c(C(F)(F)F)cnn23)CC1` [Example #118, (1r,4r)-N1-(2-(2,6-difluorophenyl)-8-(trifluoromethyl)pyrazolo[1,5-a][1,3,5]triazin-4-yl)cyclohexane-1,4-diamine], the pIC50 is more than 7.70. The figure for `CN(C)[C@@H]1CC[C@@H](Nc2nc(-c3c(F)cccc3F)nc3c(Cl)cnn23)C1` [Example #119, (1R,3R)-N1-(8-chloro-2-(2,6-difluorophenyl)pyrazolo[1,5-a][1,3,5]triazin-4-yl)-N3,N3-dimethylcyclopentane-1,3-diamine] is more than 7.70; for `CN(C)[C@H]1CC[C@H](Nc2nc(-c3c(F)cccc3F)nc3c(C(F)(F)F)cnn23)CC1` [Example #120, (1r,4r)-N1-(2-(2,6-difluorophenyl)-8-(trifluoromethyl)pyrazolo[1,5-a][1,3,5]triazin-4-yl)-N4,N4-dimethylcyclohexane-1,4-diamine] it is more than 6.70. The result for `N[C@@H]1CC[C@H](Nc2nc(-c3c(F)cccc3F)nc3c(Cl)cnn23)C1` [Example #125, (1S,3R)-N1-(8-chloro-2-(2,6-difluorophenyl)pyrazolo[1,5-a][1,3,5]triazin-4-yl)cyclopentane-1,3-diamine] reads more than 6.70; that for `OCCN[C@H]1CC[C@H](Nc2nc(-c3c(F)cccc3F)nc3c(Cl)cnn23)CC1` [Example #127, 2-(((1r,4r)-4-((8-chloro-2-(2,6-difluorophenyl)pyrazolo[1,5-a][1,3,5]triazin-4-yl)amino)cyclohexyl)amino)ethan-1-ol], more than 7.70; that for `NC1CC(Nc2nc(-c3c(F)cccc3F)nc3c(Cl)cnn23)C1` (centres unmarked) [Example #129, (1r,3r)-N1-(8-chloro-2-(2,6-difluorophenyl)pyrazolo[1,5-a][1,3,5]triazin-4-yl)cyclobutane-1,3-diamine], more than 7.70. The result for `CN(C)[C@H]1C[C@H](Nc2nc(-c3c(F)cccc3F)nc3c(Cl)cnn23)C1` [Example #130, (1r,3r)-N1-(8-chloro-2-(2,6-difluorophenyl)pyrazolo[1,5-a][1,3,5]triazin-4-yl)-N3,N3-dimethylcyclobutane-1,3-diamine] reads more than 6.70. Turning to `CN(C)C1CCC(Nc2nc(-c3c(F)cc(F)cc3F)nc3c(Cl)cnn23)CC1` (centres unmarked) [Example #131, (1r,4r)-N1-(8-chloro-2-(2,4,6-trifluorophenyl)pyrazolo[1,5-a][1,3,5]triazin-4-yl)-N4,N4-dimethylcyclohexane-1,4-diamine], the pIC50 is more than 6.70. The figure for `Cc1cc(F)c(-c2nc(NC3CCC(N(C)C)CC3)n3ncc(Cl)c3n2)c(F)c1` (centres unmarked) [Example #132, (1r,4r)-N1-(8-chloro-2-(2,6-difluoro-4-methylphenyl)pyrazolo[1,5-a][1,3,5]triazin-4-yl)-N4,N4-dimethylcyclohexane-1,4-diamine] is more than 6.70; for `CN(CCO)C1CCC(Nc2nc(-c3c(F)cccc3F)nc3c(Cl)cnn23)CC1` (centres unmarked) [Example #133, 2-(((1r,4r)-4-((8-chloro-2-(2,6-difluorophenyl)pyrazolo[1,5-a][1,3,5]triazin-4-yl)amino)cyclohexyl)(methyl)amino)ethan-1-ol] it is more than 7.70; for `CN(CCCO)C1CCC(Nc2nc(-c3c(F)cccc3F)nc3c(Cl)cnn23)CC1` (centres unmarked) [Example #134, 3-({4-[8-Chloro-2-(2,6-difluoro-phenyl)-pyrazolo[1,5-a][1,3,5]triazin-4-ylamino]-cyclohexyl}-methyl-amino)-propan-1-ol] it is more than 7.70. The compound `CN(CCCF)[C@H]1CC[C@H](Nc2nc(-c3c(F)cccc3F)nc3c(Cl)cnn23)CC1` [Example #135, (1r,4r)-N1-(8-chloro-2-(2,6-difluorophenyl)pyrazolo[1,5-a][1,3,5]triazin-4-yl)-N4-(3-fluoropropyl)-N4-methylcyclohexane-1,4-diamine] had a negative-log IC50 (pIC50) of more than 7.70. The figure for `Fc1cccc(F)c1-c1nc(NC2CCC(N3CCCC3)CC2)n2ncc(Cl)c2n1` (centres unmarked) [Example #138, 8-chloro-2-(2,6-difluorophenyl)-N-((1r,4r)-4-(pyrrolidin-1-yl)cyclohexyl)pyrazolo[1,5-a][1,3,5]triazin-4-amine] is more than 7.70. `C#Cc1cnn2c(N[C@H]3CC[C@H](N4CCOCC4)CC3)nc(-c3c(F)cccc3F)nc12` [Example #139, 2-(2,6-difluorophenyl)-8-ethynyl-N-((1r,4r)-4-morpholinocyclohexyl)pyrazolo[1,5-a][1,3,5]triazin-4-amine]: the pIC50 was more than 6.70. The result for `Fc1cccc(F)c1-c1nc(N[C@H]2CC[C@H](N3CCOCC3)CC2)n2ncc(I)c2n1` [Example #140, 2-(2,6-difluorophenyl)-8-iodo-N-((1r,4r)-4-morpholinocyclohexyl)pyrazolo[1,5-a][1,3,5]triazin-4-amine] reads more than 6.70; that for `CN1CCC(Nc2nc(-c3c(F)cccc3F)nc3c(Cl)cnn23)CC1` [Example #141, 8-chloro-2-(2,6-difluorophenyl)-N-(1-methylpiperidin-4-yl)pyrazolo[1,5-a][1,3,5]triazin-4-amine], more than 7.70; that for `CN1CCN([C@H]2CC[C@H](Nc3nc(-c4c(F)cccc4F)nc4c(Cl)cnn34)CC2)CC1` [Example #144, 8-chloro-2-(2,6-difluorophenyl)-N-((1r,4r)-4-(4-methylpiperazin-1-yl)cyclohexyl)pyrazolo[1,5-a][1,3,5]triazin-4-amine], more than 7.70.

Source of the values: patent publication US20250019382A1, “NOVEL INHIBITORS OF CYCLIN-DEPENDENT KINASES” (Origenis Gmbh, priority 2021, published 2025).
